{
  "source": "patent US20170037117A1",
  "about": "“COMPOSITIONS AND METHODS FOR TREATING METABOLIC DISORDERS” (Salk Institute for Biological Studies, priority 2014, published 2017)",
  "key": {"[1]": {"tested_on": "G1 Fab binding to human α-CGRP on the chip", "assay": "Epitope mapping of antibody G1 by peptide competition using Biacore", "conditions": "for percentage of binding of G1 Fab to human α-CGRP blocked by competing peptide: 10 uM peptide in 50 nM G1 Fab (2000:1 mol peptide/Fab), FIG. 6", "from_the_text": "N-biotinylated human α-CGRP was captured on SA sensor chip. […] Y axis represents percentage of binding blocked by the presence of the competing peptide compared with the binding in the absence of the competing peptide.\nHuman α-CGRP was purchased as an N-biotinylated version to enable its high-affinity capture via SA sensor chips. […] All these peptides are amidated at the C-terminus."}, "[2]": {"tested_on": "CRTC1 shuttling in DRG neurons", "assay": "CRTC1 nuclear shuttling in dissociated DRG neuronal cultures (immunostaining)", "assay_type": "cell-based, mouse"}, "MIN6 cells": {"tested_on": "MIN6 cells", "assay": "Insulin secretion assay of mouse insulinoma cells (MIN6) upon glucose stimulation", "assay_type": "cell-based", "conditions": "16.8 mM glucose; for effect on glucose-stimulated insulin release: 100 nM to 500 nM peptide, FIGS. 15A-C, 16A", "method": "FIGS. 15A-15C: Insulin secretion assay of mouse insulinoma cells (MIN6) upon 16.8 mM glucose stimulation.\nFIGS. 16A-16C illustrate insulin secretion and inflammation of the TRPV1 mutant mice. FIG. 16A: Insulin secretion assay of mouse insulinoma cells (MIN6) upon 16.8 mM glucose stimulation with 0.1-0.5 μM synthetic human CGRPα. FIG. 16B: Insulin secretion assay (MIN6) upon 16.8 mM glucose and exendin 4 stimulation.\nMIN6 insulinoma cells were obtained at passage 18 from Ulupi Jhala (UCSD, La Jolla, Calif.) and were cultured in DMEM (Life technologies) containing 11 mM glucose, 10% FBS, Glutamax (Invitrogen) and 10 μM β-mercapthoethanol as previously described (Huising et al., Proc. Natl. Acad. Sci. 107:912-917, 2010). Glucose stimulation was performed at low (2.8 mM) and high (16.8 mM). Treatments were diluted in Krebs-Ringer bicarbonate buffer with 2.8 mM glucose.\nTo mimic pancreatic β-cell glucose mediated insulin release, mouse insulinoma MIN6 cells were used (Huising et al., Proc. Natl. Acad. Sci. 107:912-917, 2010)."}, "[3]": {"assay": "Indirect calorimetry (RER, oxygen consumption) of old wild-type mice treated with CGRP8-37 by osmotic pump", "assay_type": "in vivo, mouse", "conditions": "old (22-23 months) male WT C57BL/6J mice, osmotic pumps, 5.5 mg/mL, after 6 weeks of treatment", "method": "FIGS. 15A-15C: Insulin secretion assay of mouse insulinoma cells (MIN6) upon 16.8 mM glucose stimulation. Cells were incubated with 0.1-0.5 μM synthetic peptides for FIG. 15A: rat CGRPα, FIG. 15B: rat CGRPβ and FIG. 15C: rat Substance P, n=4, means±S.E.M, **p<0.01, *p<0.05, Student's t test. FIG. 15D: Serum levels of CGRP measured by ELISA in blood samples from WT and TRPV1 mutants at 3 and 24 months, n=7, means±S.E.M. a, ns and b, p<0.05. FIG. 15E: Respiratory exchange ratio (RER) analysis and oxygen consumption FIG. 15F: of 23 months old male WT animals treated with CGRP8-37 or vehicle control, n=10, means±S.E.M.,**p<0.01, *p<0.05, Student's t test.\nIndirect calorimetric studies were conducted in a Comprehensive Lab Animal Monitoring System (Columbus Instruments). For GTT and GSIS, glucose (2 g/kg weight) was intraperitoneally administered and blood glucose was measured from tail bleeds at indicated times after injection using a One Touch Ultra glucometer (LifeScan). For the ITT, 5 hour fasted mice were injected with 1 u/kg of human insulin (Humulin; Eli Lily) and glucose was measured as in the GTT. […] Serum insulin was measured using an UltraSensitive Insulin ELISA kit (Crystal Chem). Serum levels of fasted leptin, adiponectin were measured using Quantikine ELISA Kits (R&D systems). […] CGRP was measured using ELISA (EIAab). […]"}},
  "note": "Entries after “also recorded” stand apart in the source; their conditions may differ. Ends that are not written are not given here.",
  "data": [
    {"molecule": "8-37: human α-CGRP fragment 8-37, SEQ ID NO: 16, VTHRLAGLLSRSGGVVKNNFVPTNVGSKAF, C-terminally amidated [Clone 8-37]", "values": [
      {"measurement": "percentage of binding of G1 Fab to human α-CGRP blocked by competing peptide", "setting": "[1]", "result": 100, "unit": "%"}
    ]},
    {"molecule": "K35A (19-37): human α-CGRP mutant fragment, SEQ ID NO: 19, SGGVVKNNFVPTNVGSAAF, C-terminally amidated (SGGVVKNNFVPTNVGSAAF-NH2; listed as Homo sapiens)", "values": [
      {"measurement": "percentage of binding of G1 Fab to human α-CGRP blocked by competing peptide", "setting": "[1]", "result": 100, "unit": "%"}
    ]},
    {"molecule": "NC1=N[C@H](O)[C@H]2[C@H]3O[C@]4(O)O[C@@H]([C@@H](O)[C@@]2(N1)[C@@H]4O)[C@]3(O)CO", "note": "[TTX, Tetrodotoxin]", "values": [
      {"measurement": "distribution of CRTC1", "setting": "[2]", "result": "remained mostly cytoplasmic"}
    ]},
    {"molecule": "rat α-CGRP: rat α-CGRP 1-37, SEQ ID NO: 41, SCNTATCVTHRLAGLLSRSGGVVKDNFVPTNVGSEAF", "values": [
      {"measurement": "reduction of insulin release, % of the maximum insulin response", "setting": "MIN6 cells; 100 nM peptide", "result": 46, "unit": "%"},
      {"measurement": "effect on glucose-stimulated insulin release", "setting": "MIN6 cells", "result": "insulin release was greatly blunted"},
      {"measurement": "percentage of binding of G1 Fab to human α-CGRP blocked by competing peptide", "setting": "[1]", "result": 100, "unit": "%"}
    ]},
    {"molecule": "COc1cccc(NC(=O)/C=C/c2ccc(Cl)cc2)c1", "note": "[SB-366791]", "values": [
      {"measurement": "CRTC1 nuclear localization after blockade of TRPV1", "setting": "[2]; WT DRG neurons, pretreatment prior to stimulation with FSK and Cap, 10 μM or 2 μM, FIG. 14D", "result": "robust nuclear exclusion of CRTC1"}
    ]},
    {"molecule": "CGRP 8-37: positive control compound (vasodilatation antagonist); CGRP receptor antagonist (Tocris Bioscience) (VTHRLAGLLSRSGGVVKNNFVPTNVGSKAF-NH2; UniProt P06881 90-119, looked up, fragment)", "values": [
      {"measurement": "oxygen consumption", "setting": "[3]; vs controls", "result": "increased"},
      {"measurement": "respiratory exchange ratio (RER), metabolic circadian shift from night to day", "setting": "[3]; vs vehicle", "result": "reappearance of a more youthful metabolic circadian shift from night to day"}
    ]},
    {"molecule": "26-37: human α-CGRP fragment 26-37, SEQ ID NO: 35, NFVPTNVGSKAF, C-terminally amidated [Clone 26-37]", "values": [
      {"measurement": "percentage of binding of G1 Fab to human α-CGRP blocked by competing peptide", "setting": "[1]", "result": 100, "unit": "%"}
    ]},
    {"molecule": "P29A (19-37): human α-CGRP mutant fragment, SEQ ID NO: 18, SGGVVKNNFVATNVGSKAF, C-terminally amidated (SGGVVKNNFVATNVGSKAF-NH2; listed as Homo sapiens)", "values": [
      {"measurement": "percentage of binding of G1 Fab to human α-CGRP blocked by competing peptide", "setting": "[1]", "result": 100, "unit": "%"}
    ]},
    {"molecule": "1-37 of β-CGRP (WT): human β-CGRP 1-37, SEQ ID NO: 43, ACNTATCVTHRLAGLLSRSGGMVKSNFVPTNVGSKAF, C-terminally amidated", "values": [
      {"measurement": "percentage of binding of G1 Fab to human α-CGRP blocked by competing peptide", "setting": "[1]", "result": 100, "unit": "%"}
    ]},
    {"molecule": "K35M (19-37): human α-CGRP mutant fragment, SEQ ID NO: 21, SGGVVKNNFVPTNVGSMAF, C-terminally amidated (SGGVVKNNFVPTNVGSMAF-NH2; listed as Homo sapiens)", "values": [
      {"measurement": "percentage of binding of G1 Fab to human α-CGRP blocked by competing peptide", "setting": "[1]", "result": 100, "unit": "%"}
    ]},
    {"molecule": "rat β-CGRP: rat β-CGRP 1-37, SEQ ID NO: 44, SCNTATCVTHRLAGLLSRSGGVVKDNFVPTNVGSKAF", "values": [
      {"measurement": "effect on glucose-stimulated insulin release", "setting": "MIN6 cells", "result": "insulin release was greatly blunted"},
      {"measurement": "reduction of insulin release, % of the maximum insulin response", "setting": "MIN6 cells; 500 nM peptide", "result": 58, "unit": "%"},
      {"measurement": "percentage of binding of G1 Fab to human α-CGRP blocked by competing peptide", "setting": "[1]", "result": 100, "unit": "%"}
    ]},
    {"molecule": "COc1cc(CNC(=O)CCCC/C=C/C(C)C)ccc1O", "note": "[Cap, capsaicin]", "values": [
      {"measurement": "CRTC1 nuclear localization", "setting": "[2]", "result": "accumulation of CRTC1 in the nuclei of TRPV1-positive cells"},
      {"measurement": "Cap-induced CRTC1 shuttling", "setting": "[2]; TRPV1 mutant DRG neurons, Cap 1 μM, FIG. 14C", "result": "abolished"}
    ]},
    {"molecule": "substance P (RPKPQQFFGLM-NH2; ends and bridges not checked; UniProt P06767 58-68, looked up) [TRPV1 secreted neuropeptide; synthetic rat peptide]", "values": [
      {"measurement": "effect on glucose-stimulated insulin release", "setting": "MIN6 cells", "result": "did not alter insulin secretion"}
    ]},
    {"molecule": "K35E (19-37): human α-CGRP mutant fragment, SEQ ID NO: 20, SGGVVKNNFVPTNVGSEAF, C-terminally amidated (SGGVVKNNFVPTNVGSEAF-NH2; listed as Homo sapiens)", "values": [
      {"measurement": "percentage of binding of G1 Fab to human α-CGRP blocked by competing peptide", "setting": "[1]", "result": 100, "unit": "%"}
    ]},
    {"molecule": "G1: humanized IgG2 monoclonal anti-CGRP antagonist antibody; VH SEQ ID NO: 1, VL SEQ ID NO: 2; ATCC PTA-6867 and PTA-6866 [Clone G1]", "values": [
      {"measurement": "epitope on human α-CGRP that is recognized by antibody G1", "setting": "[1]; Biacore peptide competition and variant affinities", "result": "targets a C-terminal epitope of CGRP; also recorded: binds to a C-terminal epitope with F37 and G33 being the most important residues; also recorded: on the C-terminal end of human α-CGRP"}
    ]}
  ]
}
